Data published in a melting point compilation (Tetko et al.; mined from patent text by program, amines drawn as free bases though some values may be those of a salt).

Row | Structure (SMILES) | melting point [°C]
1 | CCOC(=O)c1ccc2nc3sc(C(C)C)cc3c(=O)n2c1 | 122 to 123
2 | O=S(=O)(CC(O)Cn1ccnc1)c1ccccc1 (configuration not stated) | 153 to 156
3 | CC(=O)Nc1ccc2cccc(Oc3cc(N4CCN([C@H](C)c5ccc(F)cc5)CC4)ncn3)c2n1 | 134
4 | CCc1c(Oc2cc(C)cc(C)c2)n(COCc2ccccc2)c(=O)[nH]c1=O | 146 to 150
5 | Cc1sc2ccc(Cl)cc2c1C1=NCCN1 | 190 to 192
6 | COc1cccc(CCNC2(c3ccccc3Cl)C(=O)Nc3ccc(Cl)cc32)c1 (configuration not stated) | 155 to 160
7 | COc1cc(C(=O)CCN(C)C)cc(OC)c1OC | 45 to 47
8 | CCC1C(=O)Nc2ccc(Br)cc21 (configuration not stated) | 118 to 120
9 | CCCN(c1cccc(-c2ccnc3c([N+](=O)[O-])cnn23)c1)S(=O)(=O)c1ccc(OC)cc1 | 184 to 185
10 | O=C(NN1CCNC1=O)Sc1ccccc1 | 154 to 159
11 | CCOC(=O)COc1ccc2c(c1)CC(CNC(=O)OC(C)(C)C)C2 (configuration not stated) | 56 to 63
12 | C=CCc1cc(C(N)=NO)ccc1O | 144
13 | COCC1CN(c2ccc(C3CCC(O)CC3)cc2)C(=O)O1 (racemic) | 109 to 110
14 | CCc1cnc(N2CCC(c3nc4cc(-c5ccc(-n6cnnn6)cc5F)ccc4o3)CC2)nc1 | 188 to 192
15 | C=CCN(C)C(=O)Nc1cc(C(C)(C)C)on1 | 90 to 91
16 | COc1ccc(-c2nc(N3CCOCC3)c3c(C)c(C#N)sc3n2)cc1 | 204 to 206
17 | [O-][N+]1=C(c2ccccc2F)c2cc(Cl)ccc2N=C(C2CCCN2C=NO)C1 (configuration not stated) | 168 to 172
18 | C#C[C@@H](C)N(O)C(N)=O | 120 to 123
19 | NC1CCc2ccccc2NC1=O (configuration not stated) | 161 to 162
20 | Clc1cc(Oc2ccc3ncccc3c2)ncn1 | 136 to 137
21 | CN(Cc1ccc(NC(=O)C2=Cc3cc(-c4ccc(OC(F)(F)F)cc4)ccc3OCC2)cc1)C1CCOCC1 | 187 to 188
22 | CC(=O)OC(CN1C(=O)N(C(C)=O)C2(CC(C)(C)N(C)C(C)(C)C2)C1=O)CN1C(=O)N(C(C)=O)C2(CC(C)(C)N(C)C(C)(C)C2)C1=O | 105 to 108
23 | NC(=NO)c1c(C(F)(F)F)ccc(F)c1F | 114 to 115
24 | NS(=O)(=O)c1cc2cc(CCBr)ccc2s1 | 118 to 120

Row | Structure (SMILES) | melting point [°C]
25 | C#CCn1c(C(F)(F)F)c(C=O)c2ccccc21 | 106
26 | CC(C)(C)OC(=O)NC12CC3CC(CC(O)(C3)C1)C2 | 131 to 132
27 | CCCCc1nc2sc3c(NCc4ccco4)ncnc3c2c2c1COC(C)(C)C2 | 66.1 to 68.5
28 | CCOC(=O)c1cc(-c2ccc(OCCO[Si](C)(C)C(C)(C)C)cc2)n(-c2ccc(OC)cc2)n1 | 86 to 87
29 | O=C(Cl)C1CCN(c2cc(-c3ccccc3)nc3ccc(F)cc23)CC1 | 243 to 245
30 | FC(F)(F)c1cccc(Oc2cccc(-c3nnc(Nc4ccc(Cl)c(Cl)c4)s3)c2)c1 | 212 to 213
31 | Cc1cccc(Nc2ccccc2C(=O)N(C)O)c1C | 70 to 71
32 | CS(=O)(=O)C(c1ccc(Cl)cc1)c1ccc(Cl)cc1 | 93 to 94.5
33 | C=Cc1cc(CNC(=O)C(F)=Cc2ccc(C(C)(C)C)cc2)cc(F)c1NS(C)(=O)=O | 165 to 167
34 | CCc1ccc2c(c1)C=Cc1cc(C)ccc1C2c1cn(Cc2ccc(C(=O)O)o2)c(=O)[nH]c1=O (configuration not stated) | 253
35 | CN=C1c2ccccc2CCc2ccc(Cl)cc21 | 84 to 114
36 | CCc1nc2ncnn2c(N[C@H]2CC[C@@H](C(C)(C)C)CC2)c1Cl | 120 to 122
37 | COc1ccc(N(CCCC(=O)O)C(=O)C(C)N(C(=O)c2ccc(Cl)cc2Cl)c2ccc(OC)cc2)cc1 (configuration not stated) | 159 to 160
38 | COc1ccc(CNc2cc3c(Nc4ccc(F)c(Br)c4)ncnc3cn2)cc1 | 181 to 184
39 | O=C(NCCO)/C(=C/c1ccc(OC(F)(F)F)cc1)NC(=O)c1ccc(OCCCC(F)(F)F)cc1 | 160 to 163
40 | O=C(O)CCC1(CCC(=O)O)CC(=O)c2ccc(OCCCOc3ccccc3)cc2O1 | 132 to 133
41 | CCSc1ccc(NC(=S)NC(=O)OC)c(N)c1 | 168
42 | CCC(CC)Nc1nnc(-c2ccccc2)c2ccccc12 | 210
43 | CON=C(C(=O)OC)c1ccccc1ON=C(C)c1cccc(C)c1 | 90
44 | COc1cnc2c(C)ccc(-c3cccc(C(F)(F)F)c3)c2n1 | 119 to 121
45 | CC(=NO)c1noc2ccccc12 | 193 to 195
46 | O=C(Nc1cccc(-n2nc(C(F)(F)F)cc2C(F)(F)F)c1)c1c(F)cccc1F | 142 to 143
47 | CCc1ccc(Cc2c(OC)cccc2OC)cc1 | 62.5 to 66.5
48 | CCOC(=O)c1[nH]c(C)c(C)c1O | 111 to 113

Row | Structure (SMILES) | melting point [°C]
49 | Cc1c(CC(=O)NCCO[N+](=O)[O-])cc(-c2ccc(S(C)(=O)=O)cc2)n1-c1ccc(F)cc1 | 135
50 | O=Cc1c(F)cccc1N1CCN(Cc2ccccc2)CC1 | 94 to 95
51 | CCOC(=O)c1ccc(C(=O)NNC(=O)c2ccc(C(=O)OCC)cc2)cc1 | 191 to 195
52 | COC(=O)c1ccc(Br)c(CBr)c1 | 100 to 101
53 | O=C(c1cccs1)c1cnn2c(-c3cccc(NCC=C(c4ccccc4)c4ccccc4)c3)ccnc12 | 156 to 158
54 | O=C(O)Cc1ccc2c(c1)CC(=O)c1ccccc1C2 | 163 to 165
55 | CCCCCCCCCCCCCCCCOCC(CO)OCOC(C)=O (configuration not stated) | 44
56 | Cc1cc(-c2nc3cc(OC(C)C)cc(OC(C)C)c3c(=O)[nH]2)cc(C)c1OCCN1CCCC1 | 65 to 68
57 | CC1(C)CON(Cc2ccc(N3C(=O)c4ccccc4C3=O)cc2Br)C1=O | 158 to 159
58 | Cc1cccc(C)c1NC(=O)CC1CCN(CCC2CCOc3ccccc32)CC1 (configuration not stated) | 136
59 | Cc1ccc(S(=O)(=O)N2CCC(c3cccc4c3CCCC(C(=O)Nc3ccc(CN(C)C5CCOCC5)cc3)=C4)CC2)cc1 | 175 to 176
60 | COc1ccc(Cl)cc1C(=O)NCCc1ccc(-c2ccc(OC(C)(C)C(=O)O)cc2)cc1 | 145
61 | CC(=CCO)c1ccc(C2CCCCC2)cc1 | 54 to 55
62 | N#Cc1nn(-c2c(Cl)cc(C(F)(F)F)cc2Cl)c(N)c1-c1cc(Br)no1 | 227
63 | CCOC(=O)C1=C(C)NC(C)=C(C(=O)OC)C1c1ccccc1/C=C/C(=O)OC(C)(C)C (configuration not stated) | 165 to 167
64 | CCOC(=O)C1CCCCN1C(=O)Nc1cc(C(=O)OC(C)C)c(Cl)cc1F (configuration not stated) | 83 to 85
65 | O=c1[nH]nc2ccc(OCCCN3CCC(OC(c4ccccc4)c4ccccc4)CC3)nn12 | 209 to 211
66 | CC(=O)OC1CCC2C3C(Sc4ccc(O)cc4)C(=O)c4cc(O)ccc4C3CCC12C (configuration not stated) | 150 to 155
67 | O=C1NC(=O)C(Cc2ccccc2)S1 (configuration not stated) | 83 to 86
68 | COc1cccc2c1C(NC(C)=O)=NS2(=O)=O | 242 to 245
69 | CN(C)Cc1ccccc1Sc1ccc(F)cc1[N+](=O)[O-] | 57 to 59
70 | COc1ccc(-c2cc3nc(N4CCCCC4)c4ccccc4c3nn2)cc1 | 168 to 169
71 | Nc1nc2n(c(=O)c1N=O)CCN2Cc1ccc(Cl)cc1 | 273 to 275

More lines, now with the values ahead:

Row | melting point [°C] | Structure (SMILES)
72 | 169 to 171 | COc1ccc(C2=NN(C3CCN(C(=O)CCCOc4ccc5[nH]c(=O)ccc5c4)CC3)C(=O)CC2)cc1OC
73 | 130 to 132 | CCOC(=O)C(Cc1nc2cc(Cl)c(Cl)cc2nc1CP(=O)(OC)OC)(NC(C)=O)C(=O)OCC
74 | 174 to 175 | CCc1coc(Cc2ccc(NC(=O)/C=C/c3cnn(C)c3-c3ccc(F)cc3)cc2)n1
75 | 66 to 68 | CC(C)Oc1cc(F)nc(N)n1
76 | 294 to 295 | COc1cc2c(=O)n(CCN3CCCCC3)c3c4cc5c(cc4nnc3c2cc1OC)OCO5
77 | 113 | CCOC(=O)C(C)O/N=C(\C(=O)Sc1nc2ccccc2s1)c1csc(N)n1 (configuration not stated)
78 | > 360 | Nc1cc2[nH]c(=O)oc2cc1N
79 | 180 | NNC(=O)C[C@H](O)c1ccccc1
80 | 151 to 162 | Cc1cn(C(C)C(=O)O)nc1-c1ccccc1 (configuration not stated)
81 | 245 to 247 | CCCOc1c2nc(C(=O)OC)cc(O)c2cc2c(O)cc(C(=O)OC)nc12
82 | > 300 | Nc1c(F)c(F)cc2c1c(=O)c(C(=O)O)cn2C1COC1
83 | 260 to 265 | Cn1ccc2cc(-c3cc4nccnc4[nH]3)ccc21
84 | 158 to 160 | COc1ccc(C(=O)Nc2c(F)cccc2F)cc1OC1CCCC1
85 | 80 to 81 | CCOC(=O)c1c2c3c(cccc3n1C)CCC2
86 | 74 to 78 | O=C(Nc1cccc(F)c1)c1ccccn1
87 | 87 to 93 | CCC(=N)NC(=O)OC

Row | melting point [°C] | Structure (SMILES)
88 | 232 to 234 | O=C(c1cccc([N+](=O)[O-])c1)n1nc(O)c2ccccc21
89 | 142 to 144 | O=C(C=Cc1ccc(C(F)(F)F)cc1)N1CCOCC1
90 | > 250 | O=C(O)C(=Cc1cc(C(=O)O)c(=O)n2ccccc12)C(=O)O
91 | 184 to 186 | CC(C)c1cccc(C(C)C)c1NC(=O)NC1CCOc2ccccc2C1 (configuration not stated)
92 | 220 to 221 | c1ccc(CCN2CCc3[nH]c4ccc5scc(-c6ccccc6)c5c4c3C2)cc1
93 | 178 | Cn1c(=O)cc(-c2cccc(Cl)c2)c2cc(C(O)(c3ccc(Cl)cc3)c3cnccc3Cl)ccc21 (configuration not stated)
94 | 112 to 114 | Cc1ccc(-c2csc(C(=O)O)n2)cc1
95 | 116 to 118 | CN1CCN(c2nc(NCc3ccco3)nc(Nc3ccc(O)cc3)n2)CC1
96 | > 250 | COc1cc2nc(O)nc(O)c2c(OC)c1OC
97 | 165 to 169 | O=C(Nc1ccc(Cl)c(C(F)(F)F)c1)c1ccccc1[N+](=O)[O-]
98 | 172 to 173 | COc1ccc(-c2[nH]cnc2-c2cc(OC)c(O)c(OC)c2)cc1O
99 | 179 to 180 | CC(Sc1nc(N)cc(Cl)n1)c1nccc2ccccc12 (configuration not stated)
100 | > 300 | O=C(O)c1ccc(-c2cnc3c(c2)N(Cc2cc(F)ccc2F)CCN3)cc1
101 | 120 to 121 | CCCc1cc2c(cc1C=Cc1ccc(C(=O)OC)cc1)C(C)(C)CCC2(C)C
102 | 233 to 235 | Brc1nc2ncnc(NCc3ccccc3)c2[nH]1
